Test results taken from US7094802B2, “PKB-3564 substance with neovascularization inhibitory activity” (Riken, priority 2001, dated 2006).
Converted amounts (≈) assume the structure as drawn.

Experiments:
[1] = system: Jurkat cells; experiment: Suppression of Fas antibody-induced apoptosis, survival rate by MTT method; format: cell-based; conditions: Homo sapiens, Fas antibody CH-11 100 ng/ml, 6 hours, read-out: concentration that inhibited 50% of apoptosis induced by Fas antibody
Procedure: Jurkat cells, an […] T cell leukemia cell line expressing Fas, were used as Fas antibody sensitive cells. The Jurkat cells were cultured in a RPMI medium containing 10% calf serum in an incubator that contained 5% carbon dioxide and was saturated with stream. The Jurkat cells in the logarithmic proliferation period were added with RKB-3564A, RKB-3564B, RKB-3564D, RKB-3564E, and RKB-3564F in a series of dilution, and cultured in the presence of Fas antibody, CH-11 (Medical & Biological Laboratories Co., Ltd., 100 ng/ml) for 6 hours, and the survival rate of the cells was assayed by the MTT method. The survival rate was calculated according to the following formula. Survival rate (%)={[(absorbance in the presence of anti-Fas antibody and the compound)−(absorbance in the presence of anti-Fas antibody and in the absence of the compound)]/[(absorbance in the absence of anti-Fas antibody and the compound)−(absorbance in the presence of anti-Fas antibody and in the absence of the compound)]}×100

[2] = Solubility in solvents

Row | Solubility in methanol or dimethyl sulfoxide ([2]; methanol or dimethyl sulfoxide) | Solubility in n-hexane ([2]; n-hexane) | Structure (SMILES) | IC50 [1] [µg/mL]
1 |  |  | CC1OC2C3=C(C(=O)C4OC4C3O)C1C1C(C)OC=C3C(O)C4OC4C(=O)C321 (centres unmarked) [RKB-3564E] | 3 to 10 (≈ 7.72 to 25.7 µM)
2 | easily soluble | Insoluble | CC1OC2C3=C(C(=O)C4OC4C3O)C1C1C3=C(C(O)C4OC4C3=O)C2OC1C (centres unmarked) [RKB-3564D] | 3 to 10 (≈ 7.72 to 25.7 µM)
3 |  |  | CC1OC2C3=C(C(=O)C4OC4C3O)C1C1C(C)OC=C3C(O)C4OC4C(=O)C321 (single isomer, unassigned) [RKB-3564A] | 3 to 10 (≈ 7.72 to 25.7 µM)
